Source: PubChem BioAssay AID2060883 (Molecular Pharmacology Branch, DTP, NCI, 2025)
pIC50: −log10 of the molar value. Values joined by “and” are separate entries in the source; they are usually repeats but may differ in a detail not shown here. Equal values may be shown once.

System: 843782-103-R-J1-PDC complex spheroid viability
Assay: Anticancer human tumor 843782-103-R-J1-PDC patient-derived lung adenocarcinoma cell line growth inhibition [RAS]
Conditions: for viability, T/C: stronger effect = lower value
How it was run: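 Multi-cell-type spheroids: tumor cells plus HUVEC endothelial cells and mesenchymal stem cells. RAS-pathway inhibitors were combined with targeted agents, each dosed in half-log steps down from clinical Cmax, or from 10 microM when Cmax was unknown.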

[1] = curve of first compound, second compound 0.00316 µM
[2] = curve of first compound, second compound 0.01 µM
[3] = curve of first compound, second compound 0.0316 µM
[4] = curve of first compound, second compound 0.1 µM
[5] = curve of first compound, second compound 0.316 µM
[6] = curve of first compound, second compound 1 µM
[7] = second compound 0.00316 µM, first compound 0.0316 µM
[8] = second compound 0.00316 µM, first compound 0.1 µM
[9] = second compound 0.00316 µM, first compound 0.316 µM
[10] = second compound 0.00316 µM, first compound 1 µM
[11] = second compound 0.00316 µM, first compound 3.16 µM
[12] = second compound 0.00316 µM, first compound 10 µM
[13] = second compound 0.01 µM, first compound 0.0316 µM
[14] = second compound 0.01 µM, first compound 0.1 µM
[15] = second compound 0.01 µM, first compound 0.316 µM
[16] = second compound 0.01 µM, first compound 1 µM
[17] = second compound 0.01 µM, first compound 3.16 µM
[18] = second compound 0.01 µM, first compound 10 µM
[19] = second compound 0.0316 µM, first compound 0.0316 µM
[20] = second compound 0.0316 µM, first compound 0.1 µM
[21] = second compound 0.0316 µM, first compound 0.316 µM
[22] = second compound 0.0316 µM, first compound 1 µM
[23] = second compound 0.0316 µM, first compound 3.16 µM
[24] = second compound 0.0316 µM, first compound 10 µM
[25] = second compound 0.1 µM, first compound 0.0316 µM
[26] = second compound 0.1 µM, first compound 0.1 µM
[27] = second compound 0.1 µM, first compound 0.316 µM
[28] = second compound 0.1 µM, first compound 1 µM
[29] = second compound 0.1 µM, first compound 3.16 µM
[30] = second compound 0.1 µM, first compound 10 µM
[31] = second compound 0.316 µM, first compound 0.0316 µM
[32] = second compound 0.316 µM, first compound 0.1 µM
[33] = second compound 0.316 µM, first compound 0.316 µM
[34] = second compound 0.316 µM, first compound 1 µM
[35] = second compound 0.316 µM, first compound 3.16 µM
[36] = second compound 0.316 µM, first compound 10 µM
[37] = second compound 1 µM, first compound 0.0316 µM
[38] = second compound 1 µM, first compound 0.1 µM
[39] = second compound 1 µM, first compound 0.316 µM
[40] = second compound 1 µM, first compound 1 µM
[41] = second compound 1 µM, first compound 3.16 µM
[42] = second compound 1 µM, first compound 10 µM
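Further: viability read after seven days of compound exposure.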

Work on Cc1nc(N2CCC3(CC2)COC(C)C3N)c(CO)nc1Sc1ccnc(N)c1Cl (stereo unspecified) + CCn1c(-c2cc(N3CCN(C)CC3)cnc2C(C)OC)c2c3cc(ccc31)-c1csc(n1)CC(NC(=O)C1CC1C)C(=O)N1CCCC(N1)C(=O)OCC(C)(C)C2 yielded a pIC50 (curve of first compound, second compound 0.000949 µM) of 7.29, a pIC50 (curve of first compound, second compound 0.003 µM) of 7.50 and a pIC50 (curve of first compound, second compound 0.00949 µM) of over 7.50. For the same molecule, the pIC50 (curve of first compound, second compound 0.03 µM) was over 7.50, the pIC50 (curve of first compound, second compound 0.0949 µM) was over 7.50 and the pIC50 (curve of first compound, second compound 0.3 µM) was over 7.50. For the same molecule, the viability, T/C (second compound 0.000949 µM, first compound 0.0316 µM) was 54.4%, the viability, T/C (second compound 0.000949 µM, first compound 0.1 µM) was 42% and the viability, T/C (second compound 0.000949 µM, first compound 0.316 µM) was 40.2%. It also gave a viability, T/C (second compound 0.000949 µM, first compound 1 µM) of 23.5%, a viability, T/C (second compound 0.000949 µM, first compound 3.16 µM) of 19.4% and a viability, T/C (second compound 0.000949 µM, first compound 10 µM) of 19.2%. It also gave a viability, T/C (second compound 0.003 µM, first compound 0.0316 µM) of 50%, a viability, T/C (second compound 0.003 µM, first compound 0.1 µM) of 39.2% and a viability, T/C (second compound 0.003 µM, first compound 0.316 µM) of 29.5%. For the same molecule, the viability, T/C (second compound 0.003 µM, first compound 1 µM) was 22.1%, the viability, T/C (second compound 0.003 µM, first compound 3.16 µM) was 19.4% and the viability, T/C (second compound 0.003 µM, first compound 10 µM) was 13.4%. The viability, T/C (second compound 0.00949 µM, first compound 0.0316 µM) was 26.4%, the viability, T/C (second compound 0.00949 µM, first compound 0.1 µM) was 25.6% and the viability, T/C (second compound 0.00949 µM, first compound 0.316 µM) was 20%. For the same molecule, the viability, T/C (second compound 0.00949 µM, first compound 1 µM) was 19.6%, the viability, T/C (second compound 0.00949 µM, first compound 3.16 µM) was 15.9% and the viability, T/C (second compound 0.00949 µM, first compound 10 µM) was 15.1%. The viability, T/C (second compound 0.03 µM, first compound 0.0316 µM) was 18.6%, the viability, T/C (second compound 0.03 µM, first compound 0.1 µM) was 17.8% and the viability, T/C (second compound 0.03 µM, first compound 0.316 µM) was 16.4%. It also gave a viability, T/C (second compound 0.03 µM, first compound 1 µM) of 15.5%, a viability, T/C (second compound 0.03 µM, first compound 3.16 µM) of 15.5% and a viability, T/C (second compound 0.03 µM, first compound 10 µM) of 14.1%. For the same molecule, the viability, T/C (second compound 0.0949 µM, first compound 0.0316 µM) was 17.4%, the viability, T/C (second compound 0.0949 µM, first compound 0.1 µM) was 13.6% and the viability, T/C (second compound 0.0949 µM, first compound 0.316 µM) was 13.3%. The viability, T/C (second compound 0.0949 µM, first compound 1 µM) was 13%, the viability, T/C (second compound 0.0949 µM, first compound 3.16 µM) was 13.5% and the viability, T/C (second compound 0.0949 µM, first compound 10 µM) was 12.2%. It also gave a viability, T/C (second compound 0.3 µM, first compound 0.0316 µM) of 13.7%, a viability, T/C (second compound 0.3 µM, first compound 0.1 µM) of 15.5% and a viability, T/C (second compound 0.3 µM, first compound 0.316 µM) of 15.1%. The viability, T/C (second compound 0.3 µM, first compound 1 µM) was 15.4%, the viability, T/C (second compound 0.3 µM, first compound 3.16 µM) was 14% and the viability, T/C (second compound 0.3 µM, first compound 10 µM) was 12.4%.

In the case of CCC(CC)c1cc(NC2CCC(N)C2)n2nccc2n1 (stereo unspecified) + C=CC(=O)N1CCN(c2nc(OCC3CCCN3C)nc3c(F)c(-c4nc(N)cc(C)c4C(F)(F)F)c(Cl)cc23)C(C)C1, the pIC50 [1] was 5.85, the pIC50 [2] was 5.82 and the pIC50 [3] was 5.85. For the same molecule, the pIC50 [4] was 5.83, the pIC50 [5] was 5.85 and the pIC50 [6] was 5.79. For the same molecule, the viability, T/C [7] was 99.4%, the viability, T/C [8] was 87.9% and the viability, T/C [9] was 91.9%. For the same molecule, the viability, T/C [10] was 71.3%, the viability, T/C [11] was 1.31% and the viability, T/C [12] was 0.48%. It also gave a viability, T/C [13] of 94.5%, a viability, T/C [14] of 88.3% and a viability, T/C [15] of 84.7%. For the same molecule, the viability, T/C [16] was 76.2%, the viability, T/C [17] was 1.43% and the viability, T/C [18] was 0.54%. For the same molecule, the viability, T/C [19] was 91.6%, the viability, T/C [20] was 88.5% and the viability, T/C [21] was 83.3%. For the same molecule, the viability, T/C [22] was 71.2%, the viability, T/C [23] was 1.09% and the viability, T/C [24] was 0.49%. The viability, T/C [25] was 79.9%, the viability, T/C [26] was 87.6% and the viability, T/C [27] was 90.6%. For the same molecule, the viability, T/C [28] was 75.3%, the viability, T/C [29] was 1.17% and the viability, T/C [30] was 0.4%. The viability, T/C [31] was 91.7%, the viability, T/C [32] was 84.8% and the viability, T/C [33] was 88.6%. For the same molecule, the viability, T/C [34] was 71%, the viability, T/C [35] was 1.54% and the viability, T/C [36] was 0.46%. The viability, T/C [37] was 88.4%, the viability, T/C [38] was 87.1% and the viability, T/C [39] was 88.7%. The viability, T/C [40] was 86.1%, the viability, T/C [41] was 0.8% and the viability, T/C [42] was 0.59%.

In the case of CCN1CCN(Cc2ccc(Nc3ncc(F)c(-c4cc(F)c5nc(C)n(C(C)C)c5c4)n3)nc2)CC1, the viability, T/C (compound 0.00316 µM) was 105% [middle of 4 runs], the viability, T/C (compound 0.01 µM) was 97.8% [middle of 4 runs] and the viability, T/C (compound 0.0316 µM) was 99.3% [middle of 4 runs]. The viability, T/C (compound 0.1 µM) was 102% (2×) and 90.9% and 101%, the viability, T/C (compound 0.316 µM) was 95.1% [middle of 4 runs] and the viability, T/C (compound 1 µM) was 70% [middle of 4 runs]. For the same molecule, the pIC50 (curve of compound) was < 6.00 and 6.04.

In the case of Cc1nc(N2CCC3(CC2)COC(C)C3N)c(CO)nc1Sc1ccnc(N)c1Cl (stereo unspecified), the viability, T/C (compound 0.0316 µM) was 105% [middle of 4 runs], the viability, T/C (compound 3.16 µM) was 64.6% [middle of 4 runs] and the viability, T/C (compound 10 µM) was 49% [middle of 4 runs].

Work on NC1c2ccccc2OC12CCN(c1cnc3c(N4CCCc5ncccc54)n[nH]c3n1)CC2 (stereo unspecified) + C=CC(=O)N1CCN(c2nc(OCC3CCCN3C)nc3c(F)c(-c4nc(N)cc(C)c4C(F)(F)F)c(Cl)cc23)C(C)C1 yielded a pIC50 [1] of 7.31, a pIC50 [2] of over 7.50 and a pIC50 [3] of over 7.50. The pIC50 [4] was 7.40, the pIC50 [5] was 7.36 and the pIC50 [6] was 7.43. For the same molecule, the viability, T/C [7] was 58.4%, the viability, T/C [8] was 35.8% and the viability, T/C [9] was 30.5%. It also gave a viability, T/C [10] of 23.7%, a viability, T/C [11] of 30.8% and a viability, T/C [12] of 16.8%. For the same molecule, the viability, T/C [13] was 49.1%, the viability, T/C [14] was 35.5% and the viability, T/C [15] was 28.5%. It also gave a viability, T/C [16] of 22.8%, a viability, T/C [17] of 20.3% and a viability, T/C [18] of 20.2%. For the same molecule, the viability, T/C [19] was 44.9%, the viability, T/C [20] was 34.4% and the viability, T/C [21] was 30.4%. For the same molecule, the viability, T/C [22] was 25.6%, the viability, T/C [23] was 24.7% and the viability, T/C [24] was 21.3%. The viability, T/C [25] was 55%, the viability, T/C [26] was 34% and the viability, T/C [27] was 28.2%. For the same molecule, the viability, T/C [28] was 26.2%, the viability, T/C [29] was 22.9% and the viability, T/C [30] was 15%. The viability, T/C [31] was 54.4%, the viability, T/C [32] was 39.8% and the viability, T/C [33] was 29.7%. The viability, T/C [34] was 23.1%, the viability, T/C [35] was 20.9% and the viability, T/C [36] was 22.1%. The viability, T/C [37] was 52.1%, the viability, T/C [38] was 38.3% and the viability, T/C [39] was 25.2%. It also gave a viability, T/C [40] of 25.4%, a viability, T/C [41] of 25.3% and a viability, T/C [42] of 18%.
